Experimental data reported in patent US10065961B2, “Chiral N-acyl-5,6,7,(8-substituted)-tetrahydro-[1,2,4]triazolo[4,3-a]pyrazines as selective NK-3 receptor antagonists, pharmaceutical composition, methods for use in NK-3 receptor mediated disorders and chiral synthesis thereof” (Euroscreen S.A., priority 2011, dated 2018).

Legend:
circulating LH levels = experiment: Castrated male rat model, circulating levels of luteinizing hormone (LH); type: in vivo; conditions: castrated male Sprague-Dawley rats, single intravenous 10 mg/kg dose, 1 hour after dosing
Protocol: 1 on lutenizing hormone (‘LH’) plasma levels in castrated male, Sprague-Dawley rats measured 1 hour after dosing. […] Vehicle, N=10 rats; Compound no. 1, N=9 rats.
19 on lutenizing hormone (‘LH’) plasma levels in castrated male, Sprague-Dawley rats measured 1 hour after dosing. […] Vehicle, n=5 rats; Compound no. 19, n=5 rats.
Castrated Male Rat Model to Assess the Effect of Compound of Invention on Circulating Levels of Luteinizing Hormone (LH).
In humans and rodents, castration is well-precedented to permit heightened, persistent GnRH signaling and consequent elevation of circulating LH. Thus, a castrated rat model is used to provide a broad index for measurement of LH inhibition as a marker of test compound inhibition of the GnRH signaling pathway.
Castrated adult male Sprague-Dawley (SD) rats (150-175 g,) were purchased from Janvier (St Berthevin, France). […] The animals were allowed 2 weeks of postoperative recovery prior to study. Animals were handled on a daily basis. Standard diet and tap water were provided ad libitum. Animal cage litters were changed once a week. […]
After basal sampling (T0) a single dose of compounds of the invention or vehicle was administrated intravenously to rats. […] Serum LH levels were determined using radioimmunoassay kit from RIAZEN—Rat LH, Zentech (Liège, Belgium). […]

human NK1 receptor = human NK1 receptor (Homo sapiens (Human), UniProt P25103); experiment: Human NK1 radioligand binding assay ([3H] substance P)
Sequence of human NK1 receptor (P25103 whole entry): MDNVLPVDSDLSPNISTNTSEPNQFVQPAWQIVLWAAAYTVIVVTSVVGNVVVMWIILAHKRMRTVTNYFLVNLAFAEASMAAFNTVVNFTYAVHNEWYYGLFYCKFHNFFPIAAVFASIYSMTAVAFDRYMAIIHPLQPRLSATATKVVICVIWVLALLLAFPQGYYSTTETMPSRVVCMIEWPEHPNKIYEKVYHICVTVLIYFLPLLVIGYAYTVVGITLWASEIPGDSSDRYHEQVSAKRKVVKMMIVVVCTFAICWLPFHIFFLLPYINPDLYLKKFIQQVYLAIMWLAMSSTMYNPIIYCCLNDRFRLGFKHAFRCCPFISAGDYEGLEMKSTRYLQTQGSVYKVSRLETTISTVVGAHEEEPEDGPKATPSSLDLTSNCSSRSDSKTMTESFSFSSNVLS
Protocol: (§1) Membrane suspensions were prepared from these cells.

human NK2 receptor = human NK2 receptor (Homo sapiens (Human), UniProt P21452); experiment: Human NK2 radioligand binding assay ([125I]-Neurokinin A)
Sequence of human NK2 receptor (P21452 whole entry): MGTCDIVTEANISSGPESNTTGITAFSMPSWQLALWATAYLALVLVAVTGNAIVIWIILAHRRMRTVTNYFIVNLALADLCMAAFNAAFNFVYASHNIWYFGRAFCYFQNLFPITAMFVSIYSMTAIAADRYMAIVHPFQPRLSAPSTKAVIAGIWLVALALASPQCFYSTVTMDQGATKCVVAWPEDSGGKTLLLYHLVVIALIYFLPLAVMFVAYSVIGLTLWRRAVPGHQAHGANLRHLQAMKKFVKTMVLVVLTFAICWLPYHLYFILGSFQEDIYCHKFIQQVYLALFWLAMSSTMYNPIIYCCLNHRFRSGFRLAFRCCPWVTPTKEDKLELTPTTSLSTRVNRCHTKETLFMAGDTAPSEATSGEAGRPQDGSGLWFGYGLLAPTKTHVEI
Protocol: as §1

[1] = tested on: plasma testosterone levels; experiment: Gonad-intact adult male rat, circulating levels of testosterone; conditions: gonad-intact male Sprague-Dawley rats, single intravenous 50 mg/kg dose, over 210 minute test period (AUC)

SMILES | circulating LH levels (circulating LH levels) | inhibition at 10 µM (human NK1 receptor) [%] | inhibition at 10 µM (human NK2 receptor) [%] | plasma testosterone levels [1]
Cc1csc(-c2nnc3n2CCN(C(=O)c2ccc(-c4cccs4)cc2)[C@@H]3C)n1 [Compound no. 19, (R)-(8-methyl-3-(4-methylthiazol-2-yl)-5,6-dihydro-[1,2,4]triazolo[4,3-a]pyrazin-7(8H)-yl)(4-(thiophen-2-yl)phenyl)methanone] | significantly suppressed | – | – | –
Cc1nc(-c2nnc3n2CCN(C(=O)c2ccc(-c4cccs4)cc2)[C@@H]3C)co1 [compound 11, (R)-(8-methyl-3-(2-methyloxazol-4-yl)-5,6-dihydro-[1,2,4]triazolo[4,3-a]pyrazin-7(8H)-yl)(4-(thiophen-2-yl)phenyl)methanone] | – | < 10 | < 25 | –
C[C@@H]1c2nnc(-c3cccc(O)n3)n2CCN1C(=O)c1ccc(-c2cccs2)cc1 [compound 31, (R)-(3-(6-hydroxypyridin-2-yl)-8-methyl-5,6-dihydro-[1,2,4]triazolo[4,3-a]pyrazin-7(8H)-yl)(4-(thiophen-2-yl)phenyl)methanone] | – | < 10 | < 10 | –
Cc1nc(-c2nnc3n2CCN(C(=O)c2ccc(-c4cccs4)cc2)C3)cs1 [compound 3, (3-(2-methylthiazol-4-yl)-5,6-dihydro-[1,2,4]triazolo[4,3-a]pyrazin-7(8H)-yl)(4-(thiophen-2-yl)phenyl)methanone] | – | < 10 | < 10 | –
Cc1nc(-c2nnc3n2CCN(C(=O)c2ccc(-c4cccs4)cc2)[C@@H]3C)cs1 [Compound no. 1, (R)-(8-methyl-3-(2-methylthiazol-4-yl)-5,6-dihydro-[1,2,4]triazolo[4,3-a]pyrazin-7(8H)-yl)(4-(thiophen-2-yl)phenyl)methanone] | significantly suppressed | – | – | significantly suppressed
